Reference: US20130323217A1, “COMPOSITIONS AND METHODS FOR THE CONTROLLED REPOPULATION OF GRAM-NEGATIVE BACTERIA IN THE COLON” (Da Volterra, priority 2010, published 2013)

What was measured:
Assay type in all cases: in vivo, piglets
[1] = Microbiological assay of faecal concentrations of colistin; conditions: 15 mg/kg/d colistin sulfate
Method: Fecal concentrations of colistin were measured by a microbiological assay using agar medium 10 (Difco, Becton-Dickinson, Le Pont-de-Claix) and Bordetella bronchiseptica ATCC4617 as indicator strain. The limit of detection was 1.5 μg of colistin base per g of feces.
(§1) Fresh faecal samples were collected from each piglet, diluted ten-fold (w/v) in peptone broth containing 30% glycerol, and faecal suspension aliquots were stored at −80° C. until microbiological analysis.

[2] = test system: ESBL-producing Enterobacteriaceae; assay: Piglet model: faecal counts of cefotaxime-resistant (ESBL-producing) Enterobacteriaceae after colistin decontamination and E. coli Nissle 1917 repopulation
Method: (§2) The model was used according to the synopsis depicted in FIG. 1.
In summary, piglets were treated sequentially with: • cefdinir (4 mg/kg/d) during 2 days, in order to enhance the carriage of ESBL-producing bacteria, • colistin sulfate (destroy phase):
(§3) Colistin sulfate (Colivet), a non absorbable antibiotic, used in human decontamination, was given once per day orally in this experiment. Two regimens were tested: 7.5 mg/kg/d and 15 mg/kg/d, equivalent to human doses 500 mg/d and 1000 mg/d, respectively. The duration of the treatment was 3 days. The objective of such very high doses, given over a short period of time, was to obtain a rapid eradication of ESBL-producing Enterobacteriaceae without the emergence of strains resistant to colistin. • E. coli Nissle strain 1917 (EcN1917, Mutaflor). The dose was calculated to administrate the highest dose recommended in humans: 2 enteric-coated capsules of 2.5-25×10^9 viable bacteria, given orally, once daily during 6 days.
as §1
(§4) Before analysis, frozen aliquots were thawed by standing approximately 1 hr at room temperature and faecal suspensions were serially diluted in saline before plating on appropriate agar plates.
Total Enterobacteriaceae were counted using Drigalski agar (BioRad Laboratories, Marnes-La-Coquette, France) plates.
Cefotaxime- and colistin-resistant Enterobacteriaceae were counted using Drigalski agar supplemented with 1.5 mg/L cefotaxime and 10 mg/L colistin base respectively.
Bacterial counts which were below the detection threshold (2 log CFU/g of faeces) were considered to be equal to the 2 log CFU/g for statistical analysis.

[3] = test system: colistin-resistant Enterobacteriaceae; assay: Piglet model: faecal counts of colistin-resistant Enterobacteriaceae; conditions: during follow-up (14 days)
Method: as §2, §3, §1, §4
Cefotaxime- and colistin-resistant Enterobacteriaceae were counted using Drigalski agar supplemented with 1.5 mg/L cefotaxime and 10 mg/L colistin base respectively. […]

**Q.** Which results are given for colistin sulfate?
**A.** faecal concentrations relative to the MIC [1]: at least 10 fold; efficacy to eradicate ESBL-producing enterobacteria (destroy phase) ([2]; 15 mg/kg/d compared with 7.5 mg/kg/d, orally once per day, 3 days): best efficacy; decolonization of ESBL-producing enterobacteria ([2]; colistin for three days followed by six days of E. coli strain Nissle 1917): rapid and efficacious decolonization; efficacy in the restore phase ([2]; group which had received the high dose of colistin): best efficacy; selection of strains resistant to colistin [3]: no selection of strains resistant to colistin was observed
